In PMC11061730, “Bacterial stigmasterol degradation involving radical flavin delta-24 desaturase and molybdenum-dependent C26 hydroxylase” (The Journal of Biological Chemistry, 2024):

What was measured:
[1] = biological target: T1, Δ24-steroid desaturase (Δ24-SD) (Sterolibacterium denitrificans, UniProt A0A7Z7MWF7+A0A7Z7MWR3); experiment: LC-MS/MS of tryptic peptides; acid denaturation; assay type: binding; conditions: covalent; histidyl residue near N terminus in both subunits
T1 construct: gene SDENCHOL_21263; alpha 63 kDa, beta 57 kDa; covalent FMN on a histidine of each subunit

[2] = substrate: CC[C@H](/C=C/[C@@H](C)[C@H]1CC[C@H]2[C@@H]3CCC4=CC(=O)C=C[C@]4(C)[C@H]3CC[C@]12C)C(C)C; experiment: UPLC assay of SDO to STO conversion, Michaelis-Menten fit; assay type: biochemical, Sterolibacterium denitrificans; conditions: 1 mM DCPIP as electron acceptor, 50 mM Mops/KOH pH 7.0, 6% (w/v) HPCD, 30 °C, aerobic

Cc1cc2nc3c(=O)[nH]c(=O)nc-3n(C[C@H](O)[C@H](O)[C@H](O)COP(=O)(O)O)c2cc1C [flavin mononucleotide]
LC-MS/MS of tryptic peptides; acid denaturation [1]: contained flavin mononucleotide (FMN) modifications in both subunits

B1: Δ24-steroid desaturase (Δ24-SD) (Sterolibacterium denitrificans) (protein)
chain 1: MKNYDVIIIGGGINGLTTACYLQKAGLSVGVFEARGQCGAHCDTIELGRPGFLFNTHATWLVPAMSPPMADLELEKFNLELLGTDVIFAMPHADGTNTVQALDPGITMASIARHSEKDAALLGRIMEFGMMHMQEALEINGQMQYSRPTMALAERIAKLNDGLCKHLGLPIDGDDVMRMTGFELLELVYESEKVRLVPGTLGEYTGQWPLNRRVAPTVLGLCGMNPMAVHTAKGGSHALNHALVRCFVKHGGEIWTTCPVSKIIVENGRAVGIKLSEDALMPGEEIRAKNIVSNLTLTPTFTKLLGEEVIGPDWMRRIKYFNYDDPQLLGMYYAMKDAPVFKSAEYDPAIQRCWVGYFGPDSIDDVRNAQSQVMAGIMPTQTMGGWFNPTLADPSQAPAGHHVVSTWITVPPSPRKWGNKTLNGWSSWREGFGEALADTMDDLYEKMAPGFKDLIIERHINTPMDQENSNPSAVRGNMIGGSAIPEQAGENRPLPGVCVNGASRTFIPGLYLSNSIHPFGATHLASGYIAAVELAEDLGCRNQSWWISQPFEWFMGNLGNIPLNAGVADKWKV
chain 2: MSNETKFDAIVIGGGPNGLLAGAYLAKTGHKVVLFERRHETGGGLNTDEYFGFRFNLHAIYHLMAEKMPAWKDLDLANFGVRYLYPHVVAAFPFKDGSSLIFTRDVKETAESIAQFSKEDAAAYLAMWDEFQPMLDDYLIPMTYELPKPALDQLAEFGETEVGAKLAEISELSCLEVIDHYGFTHPRVRMALLSFPAMWGIHLADPLGFLYPLYLGRMLDAAFVKGGSHRLSSGMYRVFVKNGGTVIDENEVTRILVEDNRVTGVELQDGRRFMADAVVSTLNPVQTFKQLLPKDDVPYALHQAVDNWRWEERSFFGLHLGIDGGVRYNAQDPRVNEAMTVFIGLETEDELLDHLDRVDGKTTNGPEWLHIAQPTTFDKTMAPPNHSVIRAEAVVAYDPEWRARTPAFAAGCLDLIKQYATVDKVVQQRTVSPIDIEEKLTTMHRGSYKHGAYSTLQLGYLRPNDLCSCSETPIDGLFLGGASMYPGGMILGGPGYLAAQVTNDYLGEPVKK
notes: alpha 63 kDa, beta 57 kDa; covalent FMN on a histidine of each subunit
Km [2]: 51.5 ± 8.2 µM
